This note sets out measurements from PMC11842024, “Reversible male contraception by targeted inhibition of serine/threonine kinase 33” (Science (New York, N.Y.), 2024).

SMILES strings stand for the structures.

Data set [1] deals with CLK1 (Homo sapiens, UniProt P49759). In words: NanoBRET K192 assay (Promega). It is filed as cell-based. More on the design: host or cells: HEK293 (HEK293T cultured). The note with it: HEK293 cells. The protocol: (§1) NanoBRET Target Engagement K192 assay. HEK293 cells (ATCC) were cultured in DMEM (Gibco) + 10% FBS (Seradigm) and incubated in a humidified 37°C/5% CO2 incubator. The NanoBRET Target Engagement K192 Kinase Selectivity System (Promega) contains 192 unique transfection-ready NanoLuc/Kinase fusions, pre-diluted in either transfection carrier DNA or relevant cyclin DNA. These NanoLuc/Kinase fusion constructs were transfected into HEK293 cells using Fugene HD (Promega) according to the manufacturer’s protocol. Briefly, 10 µL of a 20 µg/mL DNA solution was added to white, TC-treated 96-well assay plates (Corning), followed by 30 µL of a diluted Fugene HD solution (20 µL Fugene/1 mL Opti-MEM). After transfection complex formation, HEK293 cells were resuspended at 3.3 × 105 c/mL in Opti-MEM + 1% FBS and added at a volume of 60 µL per well, to result in approximately 20000 cells/well. Cells were incubated in a humidified 37°C/5% CO2 incubator for 20 hours. Tracer K-10 (Promega) was prepared at a 100× concentration in DMSO (Sigma) and diluted to a working concentration of 10× in tracer dilution buffer (12.5 mM HEPES, 31.25% PEG400, pH 7.5) (Promega). Test compounds were prepared as concentrated stock solutions in DMSO and diluted in Opti-MEM to prepare 10× working stocks. Cells were equilibrated with test compounds and Tracer K-10 for 2 hours prior to BRET measurements. For target engagement analysis, Tracer K-10 was added to cells at one of 4 […]
Sequence of CLK1 (P49759 whole entry, the tested form may be a part): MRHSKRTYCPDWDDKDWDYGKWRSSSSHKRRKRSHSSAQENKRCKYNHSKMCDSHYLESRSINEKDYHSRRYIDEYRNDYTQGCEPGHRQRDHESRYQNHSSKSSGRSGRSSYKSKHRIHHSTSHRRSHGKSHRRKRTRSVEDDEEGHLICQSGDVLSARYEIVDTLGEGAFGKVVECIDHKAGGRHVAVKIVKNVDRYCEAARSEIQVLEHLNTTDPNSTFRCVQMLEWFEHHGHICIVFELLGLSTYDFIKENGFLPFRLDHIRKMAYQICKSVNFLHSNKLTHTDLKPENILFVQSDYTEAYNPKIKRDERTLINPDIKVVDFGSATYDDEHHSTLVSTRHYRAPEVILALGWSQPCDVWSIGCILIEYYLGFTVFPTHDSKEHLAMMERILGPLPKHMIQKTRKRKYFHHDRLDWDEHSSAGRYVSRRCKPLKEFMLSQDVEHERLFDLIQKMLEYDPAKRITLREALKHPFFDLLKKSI
(§2) manufacturer’s protocol. To measure BRET, NanoBRET NanoGlo Substrate and Extracellular NanoLuc Inhibitor (Promega) were added according to the manufacturer’s protocol, and filtered luminescence was measured on a GloMax Discover luminometer equipped with 450 nm BP filter (donor) and 600 nm LP filter (acceptor), using 0.5 s integration time. Milli-BRET units are calculated by multiplying the raw BRET units by 1000.
(§3) For Fractional Occupancy determination, the following equation was used:
(§4) % Occupancy = [1-(X-Z)/(Y-Z)]×100
(§5) Where X = BRET in the presence of the test compound and Tracer K10, Y = BRET in the presence of Tracer K10 only, and Z = Full occupancy, or BRET in the absence of the test compound and […]
(§6) Tracer K10. […]
In general terms: Bioluminescence resonance energy transfer reports proximity on the nanometre scale.

The target of data set [2] is RET (Homo sapiens, UniProt P07949). The data set can be described thus: NanoBRET K192 assay (Promega). The following applies: HEK293 cells. It is filed as cell-based. More on the design: host or cells: HEK293 (HEK293T cultured). The protocol:
as §1, §2, §3, §4, §5, §6

Data set [3] deals with CLK2 (Homo sapiens, UniProt P49760). The data set can be described thus: NanoBRET K192 assay (Promega). It is filed as cell-based. The arrangement: host or cells: HEK293 (HEK293T cultured). The note with it: HEK293 cells. The protocol:
as §1, §2, §3, §4, §5, §6

Data set [4] deals with STK33 (Homo sapiens, UniProt Q9BYT3). The data set can be described thus: NanoBRET K192 assay (Promega). It is filed as cell-based. More on the design: host or cells: HEK293 (HEK293T cultured). The following applies: HEK293 cells. The protocol:
as §1, §2, §3, §4, §5, §6

Data set [5] addresses CLK4 (Homo sapiens, UniProt Q9HAZ1). In words: NanoBRET K192 assay (Promega). It is filed as cell-based. More on the design: host or cells: HEK293 (HEK293T cultured). The following applies: HEK293 cells. The protocol:
as §1, §2, §3, §4, §5, §6

Data set [6] can be described thus: Metabolic stability assay in liver microsomes (HLM). The class given is in vitro ADME, human. The method, then:
Metabolic stability assay in liver microsomes. The stabilities of CDD-2110, CDD-2211, CDD-2212, CDD-2807, and CDD-3348 in liver microsomes with/without Uridine Diphosphate Glucuronic Acid (UDP-GA, a cofactor of UDP-glucuronosyltransferases) were performed and half-life was calculated as previously reported (36). Briefly, each CDD compound (2.0 μM) was incubated in the mouse or human liver microsomes (0.5 mg protein/mL) at 37°C in 1× PBS fortified with NADPH (1.0 mM) and with/without UDP-GA (2.5 mM). Alamethicin (25 µg/mL) as a pore forming agent was used for the glucuronidation (Table S2A). The samples were collected at specific time-points 0, 30, and 60 min in duplicate. The reactions were terminated by adding equivalent volume of ice-cold methanol (CH3OH) and vortexed. After centrifugation at 15000 g for 10 min, 3.0 μL of the supernatant was analyzed by Thermo TSQ Quantis MS coupled with a Thermo Vanquish UHPLC (San Jose, CA) equipped with a Luna C18 column (1 mm × 50 mm, 1.6 µm, Phenomenex, Torrance, CA). The column temperature was maintained at 40°C. CDD-2807 was monitored under the selected reaction monitoring (SRM) mode coupled with a positive electrospray ionization (ESI) source. The SRM ion pairs were 447→321 for CDD-2807.
(In general: Liver microsomes are vesicles of endoplasmic reticulum, rich in cytochrome P450 enzymes.)

Data set [7] has as its system male mice. In words: Computer assisted sperm analysis (CASA) of cauda epididymis sperm. The class given is in vivo. From the text:
To further understand the cause of the contraceptive effect of CDD-2807, we analyzed sperm from the cauda epididymis of each mouse using computer assisted sperm analysis (CASA). Although sperm counts were lower in the controls in protocol 1 mice versus CDD-2807–treated mice (fig. S23C), sperm motility (fig. S23D), progressive sperm (fig. S23E), and hyperactivated sperm (fig. S23F) were reduced in the CDD-2807–treated mice. In protocol 2, sperm counts (Fig. 4D), sperm motility (Fig. 4E), progressive sperm (Fig. 4F), and hyperactivated sperm (Fig. 4G) were reduced in the CDD-2807-treated mice versus control mice. […] Thus, low dose (CDD-2807 at 15 mg kg^−1 twice per day for 45 days) or reduced duration (CDD-2807 at 50 mg kg^−1 day^−1 for 7 days) appears to cause a functional defect in motility, whereas high dose (CDD-2807 at 50 mg kg^−1 day^−1 for 63 days) causes both functional and morphologic defects, consistent with the Stk33 knockout and likely a direct role of STK33 in phosphorylation of fibrous sheath proteins A-kinase anchoring protein 3 (AKAP3) and AKAP4 and/or other STK33 targets ([48]).

Where [8] appears, read: 50 mg/kg/day for 7 days (Protocol 3).
Where [9] appears, read: protocol 2 at 63 days, vs control.

Sequence of CLK2 (P49760 whole entry): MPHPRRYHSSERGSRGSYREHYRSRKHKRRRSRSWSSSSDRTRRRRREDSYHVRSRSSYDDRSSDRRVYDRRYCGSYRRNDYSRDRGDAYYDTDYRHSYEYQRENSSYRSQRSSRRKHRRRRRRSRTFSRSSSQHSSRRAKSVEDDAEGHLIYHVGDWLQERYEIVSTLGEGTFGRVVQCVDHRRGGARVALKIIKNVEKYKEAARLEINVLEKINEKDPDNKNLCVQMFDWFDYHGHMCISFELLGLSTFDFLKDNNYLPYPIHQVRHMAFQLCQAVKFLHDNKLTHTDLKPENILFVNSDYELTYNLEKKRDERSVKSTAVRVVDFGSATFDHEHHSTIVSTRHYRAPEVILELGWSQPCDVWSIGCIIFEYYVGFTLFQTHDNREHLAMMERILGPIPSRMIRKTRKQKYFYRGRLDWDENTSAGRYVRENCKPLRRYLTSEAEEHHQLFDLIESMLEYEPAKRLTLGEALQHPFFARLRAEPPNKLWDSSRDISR
Sequence of RET (P07949 29-1114): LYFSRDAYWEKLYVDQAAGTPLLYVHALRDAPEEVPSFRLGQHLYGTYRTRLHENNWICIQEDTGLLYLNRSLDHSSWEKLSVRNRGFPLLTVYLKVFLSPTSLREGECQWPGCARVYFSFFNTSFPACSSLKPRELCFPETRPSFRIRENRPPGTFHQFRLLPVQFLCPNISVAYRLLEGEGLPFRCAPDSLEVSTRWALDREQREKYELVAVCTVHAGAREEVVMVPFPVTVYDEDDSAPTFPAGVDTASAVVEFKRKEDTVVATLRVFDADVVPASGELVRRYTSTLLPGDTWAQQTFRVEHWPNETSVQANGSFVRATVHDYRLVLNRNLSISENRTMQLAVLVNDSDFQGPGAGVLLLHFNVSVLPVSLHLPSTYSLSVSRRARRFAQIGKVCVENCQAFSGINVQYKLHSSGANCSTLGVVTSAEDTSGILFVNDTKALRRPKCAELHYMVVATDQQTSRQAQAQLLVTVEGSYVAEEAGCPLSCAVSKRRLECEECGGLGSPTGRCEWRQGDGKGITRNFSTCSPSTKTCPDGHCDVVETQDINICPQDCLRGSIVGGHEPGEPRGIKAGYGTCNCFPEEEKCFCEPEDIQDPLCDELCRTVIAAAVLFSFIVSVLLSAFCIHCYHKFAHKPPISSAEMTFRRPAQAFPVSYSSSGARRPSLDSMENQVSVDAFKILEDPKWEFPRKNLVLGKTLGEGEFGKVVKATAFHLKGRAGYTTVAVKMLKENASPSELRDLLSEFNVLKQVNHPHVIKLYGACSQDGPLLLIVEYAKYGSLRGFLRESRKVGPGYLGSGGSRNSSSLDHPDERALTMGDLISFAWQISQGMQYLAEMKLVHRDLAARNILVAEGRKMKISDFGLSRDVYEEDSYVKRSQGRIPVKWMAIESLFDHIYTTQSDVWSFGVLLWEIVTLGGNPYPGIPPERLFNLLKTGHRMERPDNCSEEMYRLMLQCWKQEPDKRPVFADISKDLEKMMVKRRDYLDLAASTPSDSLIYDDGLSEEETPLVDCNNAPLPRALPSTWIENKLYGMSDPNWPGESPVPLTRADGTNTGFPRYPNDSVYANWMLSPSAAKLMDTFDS
Sequence of CLK4 (Q9HAZ1 whole entry): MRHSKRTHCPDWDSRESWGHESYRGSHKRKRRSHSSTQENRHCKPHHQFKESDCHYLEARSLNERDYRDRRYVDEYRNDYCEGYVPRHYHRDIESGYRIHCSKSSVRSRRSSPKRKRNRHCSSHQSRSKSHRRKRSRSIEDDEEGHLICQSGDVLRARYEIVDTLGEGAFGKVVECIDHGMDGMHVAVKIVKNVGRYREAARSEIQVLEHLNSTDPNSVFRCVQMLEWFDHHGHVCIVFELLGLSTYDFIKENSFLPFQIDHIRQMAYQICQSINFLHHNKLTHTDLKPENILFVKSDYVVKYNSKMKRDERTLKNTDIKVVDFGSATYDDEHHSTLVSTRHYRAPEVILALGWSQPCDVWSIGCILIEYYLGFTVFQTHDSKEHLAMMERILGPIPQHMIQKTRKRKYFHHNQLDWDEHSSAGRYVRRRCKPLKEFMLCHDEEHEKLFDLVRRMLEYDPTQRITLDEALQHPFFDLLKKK
Sequence of STK33 (Q9BYT3 whole entry): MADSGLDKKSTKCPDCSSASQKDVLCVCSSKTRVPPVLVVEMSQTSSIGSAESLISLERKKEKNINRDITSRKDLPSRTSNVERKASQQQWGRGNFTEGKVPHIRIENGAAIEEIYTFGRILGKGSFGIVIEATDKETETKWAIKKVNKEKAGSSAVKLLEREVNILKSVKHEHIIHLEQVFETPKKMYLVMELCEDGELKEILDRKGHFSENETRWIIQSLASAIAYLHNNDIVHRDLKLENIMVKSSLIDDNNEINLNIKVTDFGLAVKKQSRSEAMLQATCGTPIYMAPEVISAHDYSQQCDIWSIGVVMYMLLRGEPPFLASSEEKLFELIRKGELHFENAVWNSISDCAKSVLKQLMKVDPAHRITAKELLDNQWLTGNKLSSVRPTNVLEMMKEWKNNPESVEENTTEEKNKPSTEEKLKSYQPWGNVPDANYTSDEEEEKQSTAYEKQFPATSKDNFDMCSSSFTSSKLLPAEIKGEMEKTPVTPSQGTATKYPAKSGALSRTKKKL

For the compound `O=C(c1ccc2[nH]nc(C#Cc3ccccc3-c3ccccc3)c2c1)N1CC2(CCCNC2)C1` [CDD-2807], the receptor occupancy at 1 µM in data set [1] (HEK293, at 1 µM) turned out to be 83.5 ± 0.1%; in data set [2] (HEK293, at 1 µM) it was 85.8 ± 0.2%; in data set [3] (HEK293, at 1 µM), 89.7%; in data set [4], 95.9%; in data set [5] (HEK293, at 1 µM) it was 94.7 ± 0.1%. For the same compound, the “NanoBRET K192 assay % Occupancy CLK1” value in data set [1] (at 1 µM) is above 80%. For the same compound, the “NanoBRET K192 assay % Occupancy RET” value in data set [2] (at 1 µM) is reported as above 80%. The “NanoBRET K192 assay % Occupancy CLK2” value in data set [3] (at 1 µM) is on record as above 80%. For the same compound, the “NanoBRET K192 assay % Occupancy CLK4” value in data set [5] (at 1 µM) is on record as above 80%. Moreover, the “Metabolic stability in HLM” value in data set [6] (Phase I metabolism) is ~ 10 hours; in data set [6] (Phases I and II metabolism), ~ 6 hours. Also, the half-life at 2 µM in data set [6] (human, liver microsomes, NADPH with UDP-GA (2.5 mM), alamethicin, read-out: HLM, t1/2, liver microsomes with glucuronidation) turned out to be 6.47 h. The progressive sperm result is recorded as “statistically significant reductions” in data set [7] (setting [8]); “reduced” in data set [7] (protocol 1, day 45, vs control); “significant decrease” in data set [7] (setting [9]). Moreover, the figures for the sperm counts entry in data set [7] (setting [8]) and in data set [7] (setting [9]) were “did not alter” and “significant decrease”, respectively. The sperm hyperactivation entry in data set [7] (setting [8]) is recorded as “statistically significant reductions”. In addition, the sperm motility result in data set [7] (setting [8]) is on record as “statistically significant reductions”; in data set [7] (protocol 1, day 45, vs control) it was “reduced”; in data set [7] (setting [9]), “significant decrease”. The hyperactivated sperm entry was “reduced” in data set [7] (protocol 1, day 45, vs control) and “significant decrease” in data set [7] (setting [9]).
